Earlier results, collected in patent US20220160693A1, “PHARMACEUTICAL COMPOSITION OF PROLYL HYDROXYLASE INHIBITOR AND PREPARATION METHOD THEREFOR” (Jiangsu Hengrui Medicine Co., Ltd., priority 2019, published 2022).

Test system: prolyl hydroxylase

Inhibition effect on prolyl hydroxylase (in words): excellent inhibition effect
Compound: O=C(O)CNC(=O)c1ncc(C#CCOc2ccc(Cl)cc2)cc1O [compound of formula (I), 2-(3-hydroxy-5-(3-p-chlorophenoxypropyn-1-yl))picolinamido acetic acid]
